Where a name gives a salt, the structure may show the parent alone. Read-outs that look alike come from different tables or passages of the source.
Legend:
[1] = target: T1, SARS-CoV-2 PLpro (nsp3 1564–1878) (Severe acute respiratory syndrome coronavirus 2, UniProt P0DTD1); assay: biochemical; set-up: FRET-quenched peptide (Pro3) cleavage by PLpro, 10 min pre-incubation, slope over 20 min, normalised to no-compound control; conditions: high concentration screen, read-out: % of control remaining
[2] = target: T1, SARS-CoV-2 PLpro (nsp3 1564–1878); assay: biochemical; set-up: FRET-quenched peptide (Pro3) cleavage by PLpro, 10 min pre-incubation, slope over 20 min, normalised to no-compound control; conditions: low concentration screen, read-out: % of control remaining

Compound: c1ccc(-c2ccccn2)nc1 [2,2'-Bipyridyl]
- remaining activity at 3.75 µM ([1]; Well no.=724): 95.8%
- remaining activity at 1.25 µM ([2]; Well no.=724): 96.8%

Compound: CS(=O)(=O)c1cccc(C[C@H](NC(=O)c2c(Cl)cc3c(c2Cl)CCN(C(=O)c2ccc4ccoc4c2)C3)C(=O)O)c1 [Lifitegrast]
- remaining activity at 3.75 µM ([1]; Well no.=8038): 95.3%
- remaining activity at 1.25 µM ([2]; Well no.=8038): 94.5%

Compound: N[C@H](Cc1c[nH]c2ccccc12)C(=O)N/N=C/c1ccc2nccnc2c1 [Rhosin (hydrochloride)]
- remaining activity at 3.75 µM ([1]; Well no.=7170): 93%
- remaining activity at 1.25 µM ([2]; Well no.=7170): 91.4%

Compound: C[C@H](NCc1ccc(OCc2cccc(F)c2)cc1)C(N)=O [Safinamide mesylate salt]
- remaining activity at 3.75 µM ([1]; Well no.=5442): 94.5%
- remaining activity at 1.25 µM ([2]; Well no.=5442): 89.5%

Compound: NS(=O)(=O)OC[C@H]1C[C@@H](Nc2ccnc3cc(-c4cccc(SC(F)(F)F)c4)nn23)[C@H](O)[C@@H]1O [TAK-243]
- remaining activity at 3.75 µM ([1]; Well no.=7078): 97%
- remaining activity at 1.25 µM ([2]; Well no.=7078): 102%

Compound: O=C(O)CC(O)C(=O)O (stereo not drawn) [Malic acid]
- remaining activity at 3.75 µM ([1]; Well no.=6637): 110%
- remaining activity at 1.25 µM ([2]; Well no.=6637): 106%

Compound: COc1cc(NS(=O)(=O)c2ccc(N)cc2)ncn1 [Sulfamonomethoxine]
- remaining activity at 3.75 µM ([1]; Well no.=7544): 98.5%
- remaining activity at 1.25 µM ([2]; Well no.=7544): 98.1%

Compound: CC[C@@]1(O)C(=O)OCc2c1cc1n(c2=O)Cc2cc3c(CN(C)C)c(O)ccc3nc2-1 [Topotecan.HCl]
- remaining activity at 3.75 µM ([1]; Well no.=1964): 97.5%
- remaining activity at 1.25 µM ([2]; Well no.=1964): 98.5%

Compound: CN(C)CC[C@H](CSc1ccccc1)Nc1ccc(S(=O)(=O)NC(=O)c2ccc(N3CCN(Cc4ccccc4-c4ccc(Cl)cc4)CC3)cc2)cc1[N+](=O)[O-] [ABT-737]
- remaining activity at 3.75 µM ([1]; Well no.=2692): 101%
- remaining activity at 3.75 µM ([1]; Well no.=6348): 96.5%
- remaining activity at 3.75 µM ([1]; Well no.=8314): 97.8%
- remaining activity at 1.25 µM ([2]; Well no.=2692): 102%
- remaining activity at 1.25 µM ([2]; Well no.=6348): 99.7%
- remaining activity at 1.25 µM ([2]; Well no.=8314): 98.5%

Compound: C1=C2CCCN[C@H]2[C@@H]2C[C@H]1[C@H]1CCCCN1C2 [Aloperine]
- remaining activity at 3.75 µM ([1]; Well no.=5240): 94%
- remaining activity at 1.25 µM ([2]; Well no.=5240): 94.5%

Compound: C[C@]12CC[C@@H]3c4ccc(O)cc4CC[C@H]3[C@@H]1CC[C@H]2O [Alpha-Estradiol]
- remaining activity at 3.75 µM ([1]; Well no.=6693): 93.1%
- remaining activity at 1.25 µM ([2]; Well no.=6693): 98.9%

Compound: CC(C)[C@H](CO)Nc1nc(Nc2ccc(C(=O)O)c(Cl)c2)c2ncn(C(C)C)c2n1 [Purvalanol B]
- remaining activity at 3.75 µM ([1]; Well no.=2843): 94.9%
- remaining activity at 1.25 µM ([2]; Well no.=2843): 96.5%

Compound: C[C@@H]1O[C@@H](O[C@H]2C[C@@H](O)[C@]3(CO)[C@H]4[C@H](O)C[C@]5(C)[C@@H](C6=CC(=O)OC6)CC[C@]5(O)[C@@H]4CC[C@]3(O)C2)[C@H](O)[C@H](O)[C@H]1O [Ouabain]
- remaining activity at 3.75 µM ([1]; Well no.=1088): 94.6%
- remaining activity at 1.25 µM ([2]; Well no.=1088): 93.1%

Compound: C=C1C(=O)O[C@@H]2/C=C(\C)CC/C=C(\C)CC[C@@H]12 [Costunolide]
- remaining activity at 3.75 µM ([1]; Well no.=5230): 99.1%
- remaining activity at 3.75 µM ([1]; Well no.=6634): 101%
- remaining activity at 1.25 µM ([2]; Well no.=5230): 101%
- remaining activity at 1.25 µM ([2]; Well no.=6634): 102%

Compound: COc1ccc(N2CCOCC2)c2sc(NC(=O)N3CCC(C)(O)CC3)nc12 [Tozadenant]
- remaining activity at 3.75 µM ([1]; Well no.=7049): 100%
- remaining activity at 3.75 µM ([1]; Well no.=8115): 102%
- remaining activity at 1.25 µM ([2]; Well no.=7049): 103%
- remaining activity at 1.25 µM ([2]; Well no.=8115): 99%

Compound: O=C1CCC(N2C(=O)c3ccccc3C2=O)C(=O)N1 (stereo not drawn) [Thalidomide]
- remaining activity at 3.75 µM ([1]; Well no.=2261): 102%
- remaining activity at 1.25 µM ([2]; Well no.=2261): 98.2%

Compound: O=C(CO)N1CCC(c2n[nH]c(-c3ccc(Cl)cc3)c2-c2ccncn2)CC1 [SD-06]
- remaining activity at 3.75 µM ([1]; Well no.=2897): 97%
- remaining activity at 1.25 µM ([2]; Well no.=2897): 99.5%

Compound: CC(C)C[C@H](NP(=O)(O)O[C@@H]1O[C@@H](C)[C@H](O)[C@@H](O)[C@H]1O)C(=O)N[C@@H](Cc1c[nH]c2ccccc12)C(=O)O [Phosphoramidon disodium]
- remaining activity at 3.75 µM ([1]; Well no.=1398): 100%
- remaining activity at 1.25 µM ([2]; Well no.=1398): 99.4%

Compound: c1ccc(Cn2c(-c3ccc(OC[C@H](C4CCNCC4)n4c(-c5ccccc5)nc5ccccc54)cc3)nc3ccccc32)cc1 [Deltarasin]
- remaining activity at 3.75 µM ([1]; Well no.=8476): 92.7%
- remaining activity at 1.25 µM ([2]; Well no.=8476): 95.2%

Compound: Nc1ncnc2c1ncn2[C@@H]1O[C@H](COP(=O)(O)CP(=O)(O)OP(=O)(O)O)[C@@H](O)[C@H]1O [alpha,beta-Methylene adenosine 5'-triphosphate dilithium]
- remaining activity at 3.75 µM ([1]; Well no.=932): 98.2%
- remaining activity at 1.25 µM ([2]; Well no.=932): 101%

Reference: PMC8286840, “Identifying SARS-CoV-2 antiviral compounds by screening for small molecule inhibitors of Nsp3 papain-like protease” (Biochemical Journal, 2021)
